# Earlier results as cited in article PMC3322358 (Chemistry & biology, 2008).
# System: CFTR
# Settings: ref Muanprasat et al., 2004
structure (smiles),measurement,value
O=C(CNc1ccc2ccccc2c1)N/N=C/c1cc(Br)c(O)c(Br)c1O [GlyH-101],time constant of CFTR channel block,8 to 10 ms
